Source: US20250320213A1, “Nitrogen-Containing Heterocyclic Compounds” (Pfizer Inc., priority 2024, published 2025)

Target: T1, STAT6 (Homo sapiens, UniProt P42226)
T1 construct: stably transfected HaCaT keratinocyte cell line, which expresses NanoLuc luciferase reporter gene under the transcriptional control of the STAT6 responsive promoter; endogenous in cells; host or cells: HaCaT keratinocyte reporter cell line (stably transfected with a NanoLuc reporter)
T1 sequence (P42226 1-847): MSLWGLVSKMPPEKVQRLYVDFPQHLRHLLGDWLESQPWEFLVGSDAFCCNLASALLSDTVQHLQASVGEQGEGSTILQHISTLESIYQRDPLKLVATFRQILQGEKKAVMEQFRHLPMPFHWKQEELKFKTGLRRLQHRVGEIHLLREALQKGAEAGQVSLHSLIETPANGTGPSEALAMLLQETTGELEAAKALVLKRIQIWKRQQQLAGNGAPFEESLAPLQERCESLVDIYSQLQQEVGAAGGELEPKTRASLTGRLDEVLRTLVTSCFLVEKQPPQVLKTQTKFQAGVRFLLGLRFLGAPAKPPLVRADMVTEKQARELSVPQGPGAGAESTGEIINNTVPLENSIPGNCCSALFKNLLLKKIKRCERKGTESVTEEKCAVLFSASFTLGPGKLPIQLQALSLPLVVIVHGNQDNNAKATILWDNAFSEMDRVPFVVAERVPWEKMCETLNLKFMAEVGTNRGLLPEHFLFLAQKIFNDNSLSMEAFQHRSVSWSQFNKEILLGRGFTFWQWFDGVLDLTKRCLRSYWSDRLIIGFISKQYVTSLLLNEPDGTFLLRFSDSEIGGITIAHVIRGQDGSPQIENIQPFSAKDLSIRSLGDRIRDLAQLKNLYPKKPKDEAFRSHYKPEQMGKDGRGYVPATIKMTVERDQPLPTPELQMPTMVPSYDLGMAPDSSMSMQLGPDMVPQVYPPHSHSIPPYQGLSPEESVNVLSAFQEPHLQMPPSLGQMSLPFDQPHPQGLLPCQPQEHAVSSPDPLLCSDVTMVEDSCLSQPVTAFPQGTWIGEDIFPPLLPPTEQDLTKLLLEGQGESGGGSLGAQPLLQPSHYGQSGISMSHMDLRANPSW
Assay: STAT6 Reporter Luciferase Assay (IL-13 stimulated HaCaT keratinocyte NanoLuc reporter cells)
Assay type: cell-based
Conditions: IL-13 stimulated HaCaT STAT6 NanoLuc reporter cells; read-out: Reporter EC50
Summary of the method: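 Stably transfected HaCaT cells carrying NanoLuc under the STAT6-responsive IL-13Ra2 promoter were pre-treated with compound (11-point, 4-fold series, duplicate) for 2 h at 37 °C, then stimulated with 0.12 nM IL-13 for 4 h. Nano-Glo luminescence was read after 15 min.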

SMILES	EC50
CC(C)n1nc(C(=O)NCc2ccc(NC(=O)N(C)C)cc2)c2c1CCN(c1ccc(C(=O)N3Cc4cnc(C5CC5)nc4C3)cn1)C2 [Example 370, 5-(5-(2-cyclopropyl-6,7-dihydro-5H-pyrrolo[3,4-d]pyrimidine-6-carbonyl)pyridin-2-yl)-N-(4-(3,3-dimethylureido)benzyl)-1-isopropyl-4,5,6,7-tetrahydro-1H-pyrazolo[4,3-c]pyridine-3-carboxamide]	11 nM
CC(C)n1nc(C(=O)NCc2ccc(NC(=O)N(C)C)cc2)c2c1CCN(c1ccc(C(=O)N3CCn4ncnc4C3)cn1)C2 [Example 367, N-(4-(3,3-dimethylureido)benzyl)-1-isopropyl-5-(5-(5,6,7,8-tetrahydro-[1,2,4]triazolo[1,5-a]pyrazine-7-carbonyl)pyridin-2-yl)-4,5,6,7-tetrahydro-1H-pyrazolo[4,3-c]pyridine-3-carboxamide]	72 nM
Cc1nn(C)c(=O)n1-c1ccc(N2Cc3c(C(=O)NCc4ccc(NC(=O)N5CCN(C)CC5)cc4)nn(C(C)C)c3[C@@H](C)C2)cc1 [Example 652, (S)-5-(4-(1,3-dimethyl-5-oxo-1,5-dihydro-4H-1,2,4-triazol-4-yl)phenyl)-1-isopropyl-7-methyl-N-(4-(4-methylpiperazine-1-carboxamido)benzyl)-4,5,6,7-tetrahydro-1H-pyrazolo[4,3-c]pyridine-3-carboxamide]	5 nM
CC(C)n1nc(C(=O)NCc2ccc(NC(=O)N(C)C)cc2)c2c1CCN(c1ccc(C(=O)N3Cc4ccccc4[C@H]3C)cn1)C2 [Example 426, (R)-N-(4-(3,3-dimethylureido)benzyl)-1-isopropyl-5-(5-(1-methylisoindoline-2-carbonyl)pyridin-2-yl)-4,5,6,7-tetrahydro-1H-pyrazolo[4,3-c]pyridine-3-carboxamide]	13 nM
CC(C)n1nc(C(=O)NCc2ccc(NC(=O)N3CCC4(CCN(C)C4)CC3)c(F)c2)c2c1[C@@H](C)CN(c1ccc(C(=O)N(C)C)cc1)C2 [Example 642, (S)-N-(4-((5-(4-(dimethylcarbamoyl)phenyl)-1-isopropyl-7-methyl-4,5,6,7-tetrahydro-1H-pyrazolo[4,3-c]pyridine-3-carboxamido)methyl)-2-fluorophenyl)-2-methyl-2,8-diazaspiro[4.5]decane-8-carboxamide]	1 nM
CC(C)n1nc(C(=O)NCc2ccc(NC(=O)N3CC[C@@H](N(C)C)C3)cc2)c2c1[C@@H](C)CN(c1ccc(C(=O)N(C)C)cc1)C2 [Example 750, (S)-N-(4-((R)-3-(dimethylamino)pyrrolidine-1-carboxamido)benzyl)-5-(4-(dimethylcarbamoyl)phenyl)-1-isopropyl-7-methyl-4,5,6,7-tetrahydro-1H-pyrazolo[4,3-c]pyridine-3-carboxamide]	1 nM
Cc1noc(=O)n1-c1ccc(N2Cc3c(C(=O)NCc4ccc(NC(=O)N5CCN(C)CC5)cc4)nn(C(C)C)c3[C@@H](C)C2)cc1 [Example 656, (S)-1-isopropyl-7-methyl-5-(4-(3-methyl-5-oxo-1,2,4-oxadiazol-4(5H)-yl)phenyl)-N-(4-(4-methylpiperazine-1-carboxamido)benzyl)-4,5,6,7-tetrahydro-1H-pyrazolo[4,3-c]pyridine-3-carboxamide]	2 nM
COCCC1(N)CCN(C(=O)Nc2ccc(CNC(=O)c3nn(C(C)C)c4c3CN(c3ccc(C(=O)N(C)C)cc3)C[C@@H]4C)cc2)C1 (single isomer, unassigned) [Example 671, (S)-N-(4-((R*)-3-amino-3-(2-methoxyethyl)pyrrolidine-1-carboxamido)benzyl)-5-(4-(dimethylcarbamoyl)phenyl)-1-isopropyl-7-methyl-4,5,6,7-tetrahydro-1H-pyrazolo[4,3-c]pyridine-3-carboxamide]	3 nM
CC(C)n1nc(C(=O)NCc2ccc(NC(=O)N3CC(C)(N(C)C)C3)c(F)c2)c2c1[C@@H](C)CN(c1ccc(C(=O)N(C)C)cc1)C2 [Example 659, (S)-N-(4-(3-(dimethylamino)-3-methylazetidine-1-carboxamido)-3-fluorobenzyl)-5-(4-(dimethylcarbamoyl)phenyl)-1-isopropyl-7-methyl-4,5,6,7-tetrahydro-1H-pyrazolo[4,3-c]pyridine-3-carboxamide]	8 nM
CC(C)n1nc(C(=O)NCc2ccc(NC(=O)N(C)C)cc2)c2c1CCN(c1ccc(C(=O)N3CCc4oncc4C3)cn1)C2 [Example 432, N-(4-(3,3-dimethylureido)benzyl)-1-isopropyl-5-(5-(4,5,6,7-tetrahydroisoxazolo[4,5-c]pyridine-5-carbonyl)pyridin-2-yl)-4,5,6,7-tetrahydro-1H-pyrazolo[4,3-c]pyridine-3-carboxamide]	186 nM
CC(=O)N1CCN(C(=O)c2ccc(N3CCc4c(c(C(=O)NCc5ccc(NC(=O)N(C)C)cc5)nn4C(C)C)C3)nc2)CC1 [Example 224, 5-(5-(4-acetylpiperazine-1-carbonyl)pyridin-2-yl)-N-(4-(3,3-dimethylureido)benzyl)-1-isopropyl-4,5,6,7-tetrahydro-1H-pyrazolo[4,3-c]pyridine-3-carboxamide]	163 nM
CCn1nc(C(=O)NCc2ccc(NC(=O)N3CCN(C)CC3)cc2)c2c1C(C(F)(F)F)CN(c1ccc(C(=O)N(C)C)cn1)C2 (single isomer, unassigned) [Example 694, rel-(R or S)-5-(5-(dimethylcarbamoyl)pyridin-2-yl)-1-ethyl-N-(4-(4-methylpiperazine-1-carboxamido)benzyl)-7-(trifluoromethyl)-4,5,6,7-tetrahydro-1H-pyrazolo[4,3-c]pyridine-3-carboxamide]	0.3 nM
CC(C)n1nc(C(=O)NCc2ccc(NC(=O)N(C)C)cc2)c2c1CCN(c1ccc(C(=O)N3CCCNC(=O)C3)cn1)C2 [Example 221, N-(4-(3,3-dimethylureido)benzyl)-1-isopropyl-5-(5-(3-oxo-1,4-diazepane-1-carbonyl)pyridin-2-yl)-4,5,6,7-tetrahydro-1H-pyrazolo[4,3-c]pyridine-3-carboxamide]	227 nM
CCN(CC(=O)NC)C(=O)c1ccc(N2CCc3c(c(C(=O)NCc4ccc(NC(=O)N(C)C)cc4)nn3C(C)C)C2)nc1 [Example 213, N-(4-(3,3-dimethylureido)benzyl)-5-(5-(ethyl(2-(methylamino)-2-oxoethyl)carbamoyl)pyridin-2-yl)-1-isopropyl-4,5,6,7-tetrahydro-1H-pyrazolo[4,3-c]pyridine-3-carboxamide]	718 nM
CC(C)n1nc(C(=O)NCc2ccc(NC(=O)N(C)C)cc2)c2c1CCN(c1ccc(C(=O)N3CCn4cncc4C3)cn1)C2 [Example 438, N-(4-(3,3-dimethylureido)benzyl)-1-isopropyl-5-(5-(5,6,7,8-tetrahydroimidazo[1,5-a]pyrazine-7-carbonyl)pyridin-2-yl)-4,5,6,7-tetrahydro-1H-pyrazolo[4,3-c]pyridine-3-carboxamide]	105 nM
COC[C@H]1CN(C(=O)Nc2ccc(CNC(=O)c3nn(C(C)C)c4c3CN(c3ccc(C(=O)N(C)C)cn3)C[C@@H]4C)cc2F)CCN1 [Example 688, (S)-5-(5-(dimethylcarbamoyl)pyridin-2-yl)-N-(3-fluoro-4-((R)-3-(methoxymethyl)piperazine-1-carboxamido)benzyl)-1-isopropyl-7-methyl-4,5,6,7-tetrahydro-1H-pyrazolo[4,3-c]pyridine-3-carboxamide]	1 nM
